Source: patent US20240197726A1, “NOVEL TETRAHYDROISOQUINOLINE ALKALOID COMPOUND CONTAINING MACROCYCLE” (THE UNIVERSITY OF TOKYO, priority 2021, published 2024)
Like-named read-outs stand apart in the source and are kept apart here.

Columns and labels:
Type in all cases: cell-based
[1] = tested on: HBC-4 breast cancer cells; assay: antitumor activity, sulforhodamine B cell growth assay, HBC-4
Description: (§1) The THIQ compound containing a macrocyclic structure of the present invention was administered to various cancer cell lines, and the antitumor activity (Go value) was observed. Specifically, verification was performed according to the literature (Yamori, T.; Matsunaga, A.; Sato, S.; Yamazaki, K.; Komi, A.; Ishizu, K. et al. Cancer Res. 1999, 59, 4042) by the following procedure.
(§2) Cells were plated at an appropriate density in a 96-well plate in RPMI 1640 together with 5% fetal bovine serum, and adhered overnight. The cells were exposed to a drug for 48 hours. Then, according to the sulforhodamine B assay described by Skehan et al (Skehan P., Storeng R., Scudiero D., Monks A., McMahon J., Vistica D., Warren J. T., Bokesch H., Kenney S., Boyd M. R. J Natl. Cancer Inst, 1990, 82, 1107-1112), the cell growth rate was measured. The absorbance of the control well (C) and the test well (T) was measured at 525 nm. In addition, the time at which the drug was added was set as time 0, and the absorbance for the test well (T0) was measured. Using these measured values, the cell growth inhibitory effect (% growth=PG) was calculated by the following formula at each concentration of the drug.
(§3) (T<T0): PG=100×[(T−T0)/T]
(§4) The PG values determined above for each cell line were plotted against the concentration (logarithm) on a semi-logarithmic graph, and summarized for each visceral cancer. Concentrations at which the dose-response curve of each cell line crossed the horizontal line of PG=50%, 0%, or −50% were calculated. These concentrations were defined as Log GI50, Log TGI, and Log LC50. Actually, using two data points of the drug concentration before and after crossing each horizontal line, the drug concentration (logarithmic value) at the intersection of the straight line connecting the two points and the horizontal line for each PG was calculated.

[2] = tested on: BSY-1 breast cancer cells; assay: antitumor activity, sulforhodamine B cell growth assay, BSY-1
Description: as §1, §2, §3, §4

[3] = tested on: HCC2998 colorectal cancer cells; assay: antitumor activity, sulforhodamine B cell growth assay, HCC2998
Description: as §1, §2, §3, §4

DMS114 lung cancer cells = assay: antitumor activity, sulforhodamine B cell growth assay, DMS114
Description: as §1, §2, §3, §4

[4] = tested on: NCI-H460 lung cancer cells; assay: antitumor activity, sulforhodamine B cell growth assay, NCI-H460
Description: as §1, §2, §3, §4

[5] = tested on: PC-3 prostate cancer cells; assay: antitumor activity, sulforhodamine B cell growth assay, PC-3
Description: as §1, §2, §3, §4

[6] = tested on: NCI-H522 lung cancer cells; assay: antitumor activity, sulforhodamine B cell growth assay, NCI-H522
Description: as §1, §2, §3, §4

[7] = tested on: MDA-MB-231 breast cancer cells; assay: antitumor activity, sulforhodamine B cell growth assay, MDA-MB-231
Description: as §1, §2, §3, §4

[8] = tested on: SF-539 central nervous system cancer cells; assay: antitumor activity, sulforhodamine B cell growth assay, SF-539
Description: as §1, §2, §3, §4

[9] = tested on: HCT-116 colorectal cancer cells; assay: antitumor activity, sulforhodamine B cell growth assay, HCT-116
Description: as §1, §2, §3, §4

A549 lung cancer cells = assay: antitumor activity, sulforhodamine B cell growth assay, A549
Description: as §1, §2, §3, §4

ACHN kidney cancer cells = assay: antitumor activity, sulforhodamine B cell growth assay, ACHN
Description: as §1, §2, §3, §4

[10] = tested on: MKN74 gastric cancer cells; assay: antitumor activity, sulforhodamine B cell growth assay, MKN74
Description: as §1, §2, §3, §4

[11] = tested on: DU-145 prostate cancer cells; assay: antitumor activity, sulforhodamine B cell growth assay, DU-145
Description: as §1, §2, §3, §4

[12] = tested on: SF-295 central nervous system cancer cells; assay: antitumor activity, sulforhodamine B cell growth assay, SF-295
Description: as §1, §2, §3, §4

[13] = tested on: NCI-H23 lung cancer cells; assay: antitumor activity, sulforhodamine B cell growth assay, NCI-H23
Description: as §1, §2, §3, §4

[14] = tested on: SF-268 central nervous system cancer cells; assay: antitumor activity, sulforhodamine B cell growth assay, SF-268
Description: as §1, §2, §3, §4

[15] = tested on: OVCAR-5 cervical cancer cells; assay: antitumor activity, sulforhodamine B cell growth assay, OVCAR-5
Description: as §1, §2, §3, §4

[16] = HBC4, HBC-4 breast cancer cells, read-out: antitumor activity GI50 value: 50% growth inhibitory concentration
[17] = BSY-1 breast cancer cells, read-out: antitumor activity GI50 value: 50% growth inhibitory concentration
[18] = Homo sapiens, HCC 2998, HCC2998 colorectal cancer cells, read-out: antitumor activity GI50 value: 50% growth inhibitory concentration
[19] = Homo sapiens, DMS-114, DMS114 lung cancer cells, read-out: antitumor activity GI50 value: 50% growth inhibitory concentration
[20] = Homo sapiens, NCI-H460, NCl--H460 lung cancer cells, read-out: antitumor activity GI50 value: 50% growth inhibitory concentration
[21] = PC-3 prostate cancer cells, read-out: antitumor activity GI50 value: 50% growth inhibitory concentration
[22] = Homo sapiens, NCI-H522, NCl-H522 lung cancer cells, read-out: antitumor activity GI50 value: 50% growth inhibitory concentration
[23] = Homo sapiens, MDA-MB-231 breast cancer cells, read-out: antitumor activity GI50 value: 50% growth inhibitory concentration
[24] = Homo sapiens, SF-539 central nervous system cancer cells, read-out: antitumor activity GI50 value: 50% growth inhibitory concentration
[25] = Homo sapiens, HCT-116 colorectal cancer cells, read-out: antitumor activity GI50 value: 50% growth inhibitory concentration
[26] = Homo sapiens, A549 lung cancer cells, read-out: antitumor activity GI50 value: 50% growth inhibitory concentration
[27] = Homo sapiens, ACHN kidney cancer cells, read-out: antitumor activity GI50 value: 50% growth inhibitory concentration
[28] = Homo sapiens, MKN-74, MKN74 gastric cancer cells, read-out: antitumor activity GI50 value: 50% growth inhibitory concentration
[29] = Homo sapiens, DU-145 prostate cancer cells, read-out: antitumor activity GI50 value: 50% growth inhibitory concentration
[30] = Homo sapiens, SF-295 central nervous system cancer cells, read-out: antitumor activity GI50 value: 50% growth inhibitory concentration
[31] = Homo sapiens, NCI-H23, NCl-H23 lung cancer cells, read-out: antitumor activity GI50 value: 50% growth inhibitory concentration
[32] = Homo sapiens, SF-268 central nervous system cancer cells, read-out: antitumor activity GI50 value: 50% growth inhibitory concentration
[33] = Homo sapiens, OVCAR-5 cervical cancer cells, read-out: antitumor activity GI50 value: 50% growth inhibitory concentration

Row | Compound | GI50 [1, 16] [nM] | GI50 [2, 17] [nM] | GI50 [3, 18] [nM] | GI50 (DMS114 lung cancer cells; [19]) [nM] | GI50 [4, 20] [nM] | GI50 [5, 21] [nM] | GI50 [6, 22] [nM] | GI50 [7, 23] [nM] | GI50 [8, 24] [nM] | GI50 [9, 25] [nM] | GI50 (A549 lung cancer cells; [26]) [nM] | GI50 (ACHN kidney cancer cells; [27]) [nM] | GI50 [10, 28] [nM] | GI50 [11, 29] [nM] | GI50 [12, 30] [nM] | GI50 [13, 31] [nM] | GI50 [14, 32] [nM] | GI50 [15, 33] [nM] | further results
1 | C#CCN1C/C=C/COc2c(C)c3c(c4c2C[C@H]2[C@H]5c6c(cc(C)c(OC)c6O)C[C@@H]([C@H](C#N)N2C4CNC(=O)[C@@H]1C)N5C)OCO3 [Compound 44] | < 10 | < 10 | < 10 | < 10 | < 10 | < 10 | < 10 | < 10 | < 10 | < 10 | < 10 | < 10 | < 10 | < 10 | < 10 | < 10 | < 10 | < 10 | –
2 | C#CCN1C(=O)[C@H]2[C@@H]3C=C(COc4c(C)c5c(c6c4C[C@H]4[C@H]7c8c(cc(C)c(OC)c8O)C[C@@H]([C@H](C#N)N4C6CNC(=O)[C@H](C)NC(=O)OC3)N7C)OCO5)C[C@H]2C1=O [Compound 47] | 200 | 150 | 410 | 31 | 630 | 1500 | 29 | 180 | 290 | 450 | 3900 | 2600 | 1500 | 3900 | 1800 | 850 | 620 | 2800 | –
3 | COC1=C(C)C(=O)C2=C(C1=O)[C@H](CNC(=O)[C@H](C)N)N1C(C2)[C@H]2c3c(cc(C)c(OC)c3O)C[C@@H]([C@@H]1C#N)N2C (stereo partly shown) [Cyanosafracin B, reference compound] | – | – | – | – | – | – | – | – | – | – | – | – | – | – | – | – | – | – | GI50 ([1]; HBC-4, drug exposure 48 hours, read-out: GI50 value: 50% growth inhibitory concentration): 59 nM; GI50 ([2]; BSY-1, drug exposure 48 hours, read-out: GI50 value: 50% growth inhibitory concentration): 34 nM; GI50 ([3]; HCC2998, drug exposure 48 hours, read-out: GI50 value: 50% growth inhibitory concentration): 350 nM; GI50 (DMS114 lung cancer cells; DMS114, drug exposure 48 hours, listed as drawing 116, read-out: GI50 value: 50% growth inhibitory concentration): 35 nM; GI50 (DMS114 lung cancer cells; DMS114, drug exposure 48 hours, listed as drawing 148, read-out: GI50 value: 50% growth inhibitory concentration): 38 nM; GI50 ([4]; NCI-H460, drug exposure 48 hours, read-out: GI50 value: 50% growth inhibitory concentration): 400 nM; GI50 ([5]; PC-3, drug exposure 48 hours, read-out: GI50 value: 50% growth inhibitory concentration): 290 nM; GI50 ([6]; NCI-H522, drug exposure 48 hours, read-out: GI50 value: 50% growth inhibitory concentration): 43 nM; GI50 ([7]; MDA-MB-231, drug exposure 48 hours, read-out: GI50 value: 50% growth inhibitory concentration): 130 nM; GI50 ([8]; SF-539, drug exposure 48 hours, read-out: GI50 value: 50% growth inhibitory concentration): 180 nM; GI50 ([9]; HCT-116, drug exposure 48 hours, read-out: GI50 value: 50% growth inhibitory concentration): 290 nM; GI50 (A549 lung cancer cells; A549, drug exposure 48 hours, read-out: GI50 value: 50% growth inhibitory concentration): 1600 nM; GI50 (ACHN kidney cancer cells; ACHN, drug exposure 48 hours, read-out: GI50 value: 50% growth inhibitory concentration): 320 nM; GI50 ([10]; MKN74, drug exposure 48 hours, read-out: GI50 value: 50% growth inhibitory concentration): 310 nM; GI50 ([11]; DU-145, drug exposure 48 hours, read-out: GI50 value: 50% growth inhibitory concentration): 490 nM; GI50 ([12]; SF-295, drug exposure 48 hours, read-out: GI50 value: 50% growth inhibitory concentration): 500 nM; GI50 ([13]; NCI-H23, drug exposure 48 hours, read-out: GI50 value: 50% growth inhibitory concentration): 290 nM; GI50 ([14]; SF-268, drug exposure 48 hours, read-out: GI50 value: 50% growth inhibitory concentration): 370 nM; GI50 ([15]; OVCAR-5, drug exposure 48 hours, read-out: GI50 value: 50% growth inhibitory concentration): 390 nM
4 | CC1=C(C)C(=O)C2=C(CC3(C)[C@H]4c5c(cc(C)c(C)c5C)C[C@@](C)(C(C)N3[C@H]2CNC(=O)C(C)C)N4C)C1=O (stereo partly shown) [drawing 160] | 59 | 34 | 350 | 35 | 400 | 290 | 43 | 130 | 180 | 290 | 1600 | 320 | 310 | 490 | 500 | 290 | 370 | 390 | –
